In patent US20170210751A1, “PRMT5 INHIBITORS AND USES THEREOF” (Epizyme, Inc., priority 2014, published 2017) one finds IC50 and EC50 data, which are given here for 31 molecules.

One experiment addresses T1, PRMT5/MEP50 (Homo sapiens, UniProt O14744).
T1 construct: Flag-PRMT5; made in house; host or cells: Spodoptera frugiperda (SF9) insect cells, baculovirus (pDEST8)
Briefly: PRMT5 Biochemical Assay (PRMT5/MEP50 enzyme assay on peptide substrate, 3H-SAM Flashplate). The conditions noted are these: PRMT5/MEP50 4 nM, 3H-SAM 75 nM, peptide 40 nM, 30 min preincubation at 25 degrees Celsius. The method in brief:
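FLAG-PRMT5/His-MEP50 from Sf9 cells (4 nM) preincubated 30 min at 25 °C with compounds, then reacted with 75 nM 3H-SAM and 40 nM biotinylated histone H4 1-15 peptide in Bicine pH 7.6, 1% DMSO. Stopped with 600 uM cold SAM; streptavidin Flashplate capture, scintillation counts; % inhibition fitted to 3- or 4-parameter curve.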

Another experiment has as its system Z-138 cell line. Briefly: Z-138 Proliferation Assay (Cell Titer Glo). The experiment is classed as cell-based. The note with it: Homo sapiens, 120 h; Z-138 cells, 5 days incubation, ATP (Cell Titer Glo). The source says:
Z-138 Proliferation Assay
Z-138 suspension cells were purchased from ATCC (American Type Culture Collection, Manassas, Va.). RPMI/Glutamax medium, penicillin-streptomycin, heat inactivated fetal bovine serum were purchased from Life Technologies, Grand Island, N.Y., USA. V-bottom polypropylene 384-well plates were purchased from Greiner Bio-One, Monroe, N.C., USA. Cell culture 384-well white opaque plates were purchased from Perkin Elmer, Waltham, Mass., USA. Cell-Titer Glo® was purchased from Promega Corporation, Madison, Wis., USA. SpectraMax M5 plate reader was purchased from Molecular Devices LLC, Sunnyvale, Calif., USA.
Z-138 suspension cells were maintained in growth medium (RPMI 1640 supplemented with 10% v/v heat inactivated fetal bovine serum and cultured at 37° C. under 5% CO2. Under assay conditions, cells were incubated in assay medium (RPMI 1640 supplemented with 10% v/v heat inactivated fetal bovine serum and 100 units/mL penicillin-streptomycin) at 37° C. under 5% CO2.
For the assessment of the effect of compounds on the proliferation of the Z-138 cell line, exponentially growing cells were plated in 384-well white opaque plates at a density of 10,000 cells/ml in a final volume of 50 μl of assay medium. A compound source plate was prepared by performing triplicate nine-point 3-fold serial dilutions in DMSO, beginning at 10 mM (final top concentration of compound in the assay was 20 μM and the DMSO was 0.2%). A 100 nL aliquot from the compound stock plate was added to its respective well in the cell plate. […] After addition of compounds, assay plates were incubated for 5 days at 37° C., 5% CO2, relative humidity >90%.
Cell viability was measured by quantitation of ATP present in the cell cultures, adding 35 μl of Cell Titer Glo® reagent to the cell plates. Luminescence was read in the SpectraMax M5 microplate reader. The concentration of compound inhibiting cell viability by 50% was determined using a 4-parametric fit of the normalized dose response curves.
Background: In ATP-based viability assays light output follows the ATP content of the culture.

T1 sequence (O14744 with tags, fused parts or gaps): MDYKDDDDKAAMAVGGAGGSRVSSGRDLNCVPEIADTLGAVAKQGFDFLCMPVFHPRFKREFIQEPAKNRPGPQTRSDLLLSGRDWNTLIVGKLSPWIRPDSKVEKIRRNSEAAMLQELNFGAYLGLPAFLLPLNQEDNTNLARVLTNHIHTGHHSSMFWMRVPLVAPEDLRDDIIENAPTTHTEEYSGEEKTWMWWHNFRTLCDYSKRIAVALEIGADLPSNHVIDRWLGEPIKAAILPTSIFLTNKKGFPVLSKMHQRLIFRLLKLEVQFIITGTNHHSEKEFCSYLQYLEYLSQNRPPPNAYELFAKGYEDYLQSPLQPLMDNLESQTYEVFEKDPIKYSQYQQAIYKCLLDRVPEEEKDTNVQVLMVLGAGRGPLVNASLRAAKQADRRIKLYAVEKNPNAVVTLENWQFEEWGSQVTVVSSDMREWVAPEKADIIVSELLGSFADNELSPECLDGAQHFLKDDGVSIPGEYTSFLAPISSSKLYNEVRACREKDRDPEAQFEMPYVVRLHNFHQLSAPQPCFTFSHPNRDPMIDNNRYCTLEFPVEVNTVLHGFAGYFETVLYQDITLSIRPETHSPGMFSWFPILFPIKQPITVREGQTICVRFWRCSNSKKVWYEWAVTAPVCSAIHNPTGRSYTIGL
T1 sequence (Q9BQA1 with tags, fused parts or gaps partner limits assumed): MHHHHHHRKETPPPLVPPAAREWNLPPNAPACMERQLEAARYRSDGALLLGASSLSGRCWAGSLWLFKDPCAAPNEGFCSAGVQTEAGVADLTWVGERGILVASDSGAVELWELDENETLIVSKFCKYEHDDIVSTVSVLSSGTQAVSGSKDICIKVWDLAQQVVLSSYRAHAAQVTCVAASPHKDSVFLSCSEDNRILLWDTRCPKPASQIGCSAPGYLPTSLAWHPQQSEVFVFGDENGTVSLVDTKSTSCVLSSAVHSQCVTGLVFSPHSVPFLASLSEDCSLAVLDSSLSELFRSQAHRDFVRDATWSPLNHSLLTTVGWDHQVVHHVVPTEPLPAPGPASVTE

`CC(=O)N1CC(Nc2cc(C(=O)NC[C@H](O)CN3CCc4sc(N)nc4C3)ncn2)C1` [Compound 1-28]: the IC50 (usually the point on the concentration scale where inhibition reaches its midpoint) at PRMT5/MEP50 was in the range of 1 to 10 µM. Also, the EC50 – broadly, the concentration at which the effect is half-maximal – in the experiment on Z-138 cell line was greater than 5 µM.

With `CC(=O)N1CC(Nc2cc(C(=O)NC[C@H](O)CN3CCc4nc(N)sc4C3)ncn2)C1` [Compound 1-29], the IC50 at PRMT5/MEP50 was in the range of 1 to 10 µM. Also, the EC50 with Z-138 cell line is greater than 5 µM.

As to `CC(=O)N1CCC(Nc2cc(C(=O)NC[C@H](O)CN3CCc4scnc4C3)ccn2)CC1` [Compound 1-30], the IC50 at PRMT5/MEP50 is 1 to 10 µM. The same molecule gave an EC50 in the experiment on Z-138 cell line greater than 5 µM.

Regarding `CC(=O)N1CCC(Nc2cc(C(=O)NC[C@H](O)CN3CCc4scnc4C3)ncn2)CC1` [Compound 1-32], at PRMT5/MEP50, the IC50 was 1 to 10 µM. Further, the EC50 in the experiment on Z-138 cell line was greater than 5 µM.

Regarding `CC(=O)N1CCC(Nc2cc(C(=O)NC[C@H](O)CN3CCc4sc(C)nc4C3)ccn2)CC1` [Compound 1-33], the IC50 at PRMT5/MEP50 was in the range of 1 to 10 µM. The EC50 in the experiment on Z-138 cell line is greater than 5 µM.

As to `CC(=O)N1CCC(Nc2cc(C(=O)NC[C@H](O)CN3CCc4sc(N)nc4C3)ccn2)CC1` [Compound 1-34], the IC50 on PRMT5/MEP50 lay within 0.101 to 1 µM. The same molecule yielded an EC50 in the experiment with Z-138 cell line greater than 5 µM.

Consider `CC(=O)N1CCC(Nc2cc(C(=O)NC[C@H](O)CN3CCc4nc(N)sc4C3)ccn2)CC1` [Compound 1-35], for which the IC50 on PRMT5/MEP50 lay in the range of 0.101 to 1 µM. In addition, in the experiment on Z-138 cell line, the EC50 was greater than 5 µM.

Take `CC(=O)N1CCC(Nc2cc(C(=O)NC[C@H](O)CN3CCc4sc(C)nc4C3)ncn2)CC1` [Compound 1-36]: the IC50 on PRMT5/MEP50 lay in the range of 1 to 10 µM. The EC50 with Z-138 cell line was greater than 5 µM.

Regarding `CC(=O)N1CCC(Nc2cc(C(=O)NC[C@H](O)CN3CCc4sc(N)nc4C3)ncn2)CC1` [Compound 1-37], on PRMT5/MEP50, the IC50 lay within 1 to 10 µM. Also, the EC50 in the experiment on Z-138 cell line was greater than 5 µM.

Turning to `CC(=O)N1CCC(Nc2cc(C(=O)NC[C@H](O)CN3CCc4nc(N)sc4C3)ncn2)CC1` [Compound 1-38], the IC50 at PRMT5/MEP50 fell in the range of 1 to 10 µM. The EC50 in the experiment with Z-138 cell line was greater than 5 µM.

For `O=C(COc1cccc2cccnc12)NCC(O)CN1CCc2cccnc2C1` (centres unmarked) [Compound 2-5, N-[2-hydroxy-3-(5,6,7,8-tetrahydro-1,7-naphthyridin-7-yl)propyl]-2-(quinolin-8-yloxy)acetamide], at PRMT5/MEP50, the IC50 was in the range of 1 to 10 µM. The molecule also returned an EC50 with Z-138 cell line greater than 5 µM.

Consider `O=C(COc1cccc2cccnc12)NCC(O)CN1CCc2ncccc2C1` (centres unmarked) [Compound 2-6, N-[2-hydroxy-3-(5,6,7,8-tetrahydro-1,6-naphthyridin-6-yl)propyl]-2-(quinolin-8-yloxy)acetamide], for which the IC50 on PRMT5/MEP50 lay within 1 to 10 µM. Also, the EC50 in the experiment on Z-138 cell line was greater than 5 µM.

On to `O=C(COc1cccc2cccnc12)NCC(O)CN1CCc2cnccc2C1` (centres unmarked) [Compound 2-7, N-[2-hydroxy-3-(1,2,3,4-tetrahydro-2,6-naphthyridin-2-yl)propyl]-2-(quinolin-8-yloxy)acetamide], for which, on PRMT5/MEP50, the IC50 lay within 1 to 10 µM. In addition, the EC50 with Z-138 cell line was greater than 5 µM.

For `O=C(COc1cccc2cccnc12)NCC(O)CN1CCc2ccncc2C1` (centres unmarked) [Compound 2-8, N-[2-hydroxy-3-(1,2,3,4-tetrahydro-2,7-naphthyridin-2-yl)propyl]-2-(quinolin-8-yloxy)acetamide], the IC50 at PRMT5/MEP50 fell in the range of 1 to 10 µM. This molecule also had an EC50 in the experiment on Z-138 cell line greater than 5 µM.

In the case of `CC(=O)N1CC(Nc2cc(C(=O)NC[C@H](O)CN3CCc4ncccc4C3)ncn2)C1` [Compound 2-9, (S)-6-((1-acetylazetidin-3-yl)amino)-N-(3-(7,8-dihydro-1,6-naphthyridin-6(5H)-yl)-2-hydroxypropyl)pyrimidine-4-carboxamide], on PRMT5/MEP50, the IC50 lay within 0.101 to 1 µM. In the experiment on Z-138 cell line, the EC50 is greater than 5 µM.

Consider `CC(=O)N1CCC(Nc2cc(C(=O)NC[C@H](O)CN3CCc4cccnc4C3)ncn2)CC1` [Compound 2-11, (S)-6-((1-acetylpiperidin-4-yl)amino)-N-(3-(5,6-dihydro-1,7-naphthyridin-7(8H)-yl)-2-hydroxypropyl)pyrimidine-4-carboxamide], for which the IC50 on PRMT5/MEP50 fell in the range of 0.101 to 1 µM. The EC50 in the experiment with Z-138 cell line was greater than 5 µM.

In the case of `O=C(NC[C@H](O)CN1CCc2ncccc2C1)c1cc(NC2COC2)ncn1` [Compound 2-12, (S)—N-(3-(7,8-dihydro-1,6-naphthyridin-6(5H)-yl)-2-hydroxypropyl)-6-(oxetan-3-ylamino)pyrimidine-4-carboxamide], the IC50 on PRMT5/MEP50 was 0.101 to 1 µM. The molecule also gave an EC50 with Z-138 cell line of 1 to 10 µM.

As for `CC(=O)N1CC(Nc2cc(C(=O)NC[C@H](O)CN3CCc4cccnc4C3)ncn2)C1` [Compound 2-13], the IC50 on PRMT5/MEP50 lay in the range of 0.101 to 1 µM. In the experiment on Z-138 cell line, this molecule yielded an EC50 of 1 to 10 µM.

For the molecule `CC(=O)N1CCC(Nc2cc(C(=O)NC[C@H](O)CN3CCc4ncccc4C3)ncn2)CC1` [Compound 2-14, (S)-6-((1-acetylpiperidin-4-yl)amino)-N-(3-(7,8-dihydro-1,6-naphthyridin-6(5H)-yl)-2-hydroxypropyl)pyrimidine-4-carboxamide], the IC50 at PRMT5/MEP50 is less than 0.1 µM. In the experiment with Z-138 cell line, this molecule displayed an EC50 of 1 to 10 µM.

In the case of `O=C(NC[C@H](O)CN1CCc2cnccc2C1)c1cc(NC2COC2)ncn1` [Compound 2-15], at PRMT5/MEP50, the IC50 lay within 1 to 10 µM. The molecule also returned an EC50 in the experiment on Z-138 cell line greater than 5 µM.

For the molecule `CC(=O)N1CC(Nc2cc(C(=O)NC[C@H](O)CN3CCc4cnccc4C3)ncn2)C1` [Compound 2-16], the IC50 on PRMT5/MEP50 was in the range of 0.101 to 1 µM. Besides, the EC50 with Z-138 cell line was greater than 5 µM.

Consider `CC(=O)N1CCC(Nc2cc(C(=O)NC[C@H](O)CN3CCc4cnccc4C3)ncn2)CC1` [Compound 2-17, (S)-6-((1-acetylpiperidin-4-yl)amino)-N-(3-(3,4-dihydro-2,6-naphthyridin-2(1H)-yl)-2-hydroxypropyl)pyrimidine-4-carboxamide], for which the IC50 at PRMT5/MEP50 was in the range of 0.101 to 1 µM. Moreover, in the experiment on Z-138 cell line, the EC50 is greater than 5 µM.

For `CC(=O)N1CCC(Nc2cc(C(=O)NC[C@H](O)CN3CCc4cnccc4C3)ccn2)CC1` [Compound 2-18], the IC50 at PRMT5/MEP50 is 0.101 to 1 µM. Further, the EC50 in the experiment with Z-138 cell line lay in the range of 0.101 to 1 µM.

For `CC(=O)N1CCC(Nc2cc(C(=O)NC[C@H](O)CN3CCc4ccncc4C3)ccn2)CC1` [Compound 2-19, (S)-2-((1-acetylpiperidin-4-yl)amino)-N-(3-(3,4-dihydro-2,7-naphthyridin-2(1H)-yl)-2-hydroxypropyl)isonicotinamide], the IC50 at PRMT5/MEP50 was in the range of 0.101 to 1 µM. In the experiment with Z-138 cell line, the EC50 is greater than 5 µM.

In the case of `CC(=O)N1CCC(Nc2cc(C(=O)NC[C@H](O)CN3CCc4ncccc4C3)ccn2)CC1` [Compound 2-20, (S)-2-((1-acetylpiperidin-4-yl)amino)-N-(3-(7,8-dihydro-1,6-naphthyridin-6(5H)-yl)-2-hydroxypropyl)isonicotinamide], the IC50 at PRMT5/MEP50 is 0.101 to 1 µM. The same molecule gave an EC50 in the experiment on Z-138 cell line greater than 5 µM.

On to `CC(=O)N1CCC(Nc2cc(C(=O)NC[C@H](O)CN3CCc4cccnc4C3)ccn2)CC1` [Compound 2-21, (S)-2-((1-acetylpiperidin-4-yl)amino)-N-(3-(5,6-dihydro-1,7-naphthyridin-7(8H)-yl)-2-hydroxypropyl)isonicotinamide], for which, at PRMT5/MEP50, the half-inhibitory concentration (IC50) fell in the range of 0.101 to 1 µM. The EC50 in the experiment with Z-138 cell line is greater than 5 µM.

Consider `CC(=O)N1CC(Nc2cc(C(=O)NC[C@H](O)CN3CCc4ccncc4C3)ncn2)C1` [Compound 2-22], for which the IC50 at PRMT5/MEP50 lay within 1 to 10 µM. The molecule also yielded an EC50 with Z-138 cell line greater than 5 µM.

For `CC(=O)N1CCC(Nc2cc(C(=O)NC[C@H](O)CN3CCc4ccncc4C3)ncn2)CC1` [Compound 2-23, (S)-6-((1-acetylpiperidin-4-yl)amino)-N-(3-(3,4-dihydro-2,7-naphthyridin-2(1H)-yl)-2-hydroxypropyl)pyrimidine-4-carboxamide], on PRMT5/MEP50, the IC50 was 1 to 10 µM. In addition, the EC50 in the experiment with Z-138 cell line is greater than 5 µM.

With `O=C(NC[C@H](O)CN1CCc2ccncc2C1)c1cc(NC2COC2)ncn1` [Compound 2-24], on PRMT5/MEP50, the IC50 fell in the range of 1 to 10 µM. Besides, the EC50 with Z-138 cell line is greater than 5 µM.

On to `O=C(COc1cccc2cccnc12)NCC(O)CN1CCc2nc[nH]c2C1` (centres unmarked) [Compound 3-10, N-(2-hydroxy-3-{3H,4H,5H,6H,7H-imidazo[4,5-c]pyridin-5-yl}propyl)-2-(quinolin-8-yloxy)acetamide], for which, at PRMT5/MEP50, the IC50 is greater than 10 µM. The EC50 in the experiment with Z-138 cell line was greater than 5 µM.

On to `CC(=O)N1CC(Nc2cc(C(=O)NC[C@H](O)CN3CCc4[nH]nc(-c5ccccc5)c4C3)ncn2)C1` [Compound 3-11, (S)-6-((1-acetylazetidin-3-yl)amino)-N-(2-hydroxy-3-(3-phenyl-6,7-dihydro-1H-pyrazolo[4,3-c]pyridin-5(4H)-yl)propyl)pyrimidine-4-carboxamide], for which the IC50 on PRMT5/MEP50 lay within 1 to 10 µM. In addition, the EC50 with Z-138 cell line is greater than 5 µM.
